The values that follow come from patent US10800791B2, “Triazole ACC inhibitors and uses thereof” (Gilead Apollo, LLC, priority 2015, dated 2020).

Molecules are shown by their SMILES. Values after ≈ are worked out from the molar mass of the structure shown. Like-named read-outs stand apart in the source and are kept apart here.

For test [1], the system named is C. albicans. Description: Antifungal Activity Assay (broth microtiter MIC), C. albicans. The format is cell-based, Candida albicans. As to conditions: Candida albicans, ATCC90028, 48 h, ATCC 90028, 3 replicates, MIC recorded at 48 h, read-out: MIC, C. albicans ATCC 90028. As for the experimental part:
(§1) Compounds of the present invention were evaluated in an Antifungal Activity Assay. An exemplary procedure for the assay, which measures the susceptibility of various Candida species to antifungal compounds, follows. Compounds to be tested (including fluconazole and amphotericin B) were dissolved in DMSO to obtain a solution having a concentration of 1 mg/mL. These stock solutions were sterile filtered using a 0.22 um nylon syringe filter, then diluted in sterile water to achieve a final concentration of 128 μg/mL.
(§2) All species were grown from frozen stock by directly plating on to freshly prepared Sabouraud Dextrose agar (BD, Difco) and incubated overnight in ambient air at 35° C. for 24 h. A direct suspension was prepared in RPMI 1640+MOPS (Lonza, Biowhittaker) by taking individual colonies from the overnight cultures using sterile swabs soaked in sterile saline. The concentration of the suspension was determined using pre-determined standard curves. These suspensions were then diluted down to 5×10^3 CFU/mL to achieve a final concentration of 2.5×10^3 CFU/mL once added to the microtiter plate as per CLSI guidelines (M27-A3, Vol. 28 No. 14).
(§3) Broth microtiter MIC challenge plates were prepared following CLSI guidelines (M27-A3, Vol. 28 No. 14). The original CLSI guidelines focused on reading Candida MICs after 48 h of incubation. As reading after only 24 h offers a clear advantage of patient care, QC limits are being established for all drugs at 24 h. That being said there are no known interpretive breakpoints for amphotericin B at 24 h and the current fluconazole interpretive breakpoints are based on a 48 h reading. The MICs for the test compounds were recorded at 48 h. All MIC determinations were achieved by visually comparing the growth found in the antibiotic challenged wells to that of the growth control.

In test [2] the test system is C. krusei. As to the kind of experiment: Antifungal Activity Assay (broth microtiter MIC), C. krusei. The format is cell-based, Candida krusei. As to conditions: Pichia kudriavzevii, ATCC6258, 48 h, ATCC 6258, 3 replicates, MIC recorded at 48 h, read-out: MIC, C. krusei ATCC 6258. As for the experimental part:
as §1, §2, §3

For test [3], the system named is C. parapsilosis. Description: Antifungal Activity Assay (broth microtiter MIC), C. parapsilosis. The test is classed as cell-based, Candida parapsilosis. As to conditions: Lodderomyces parapsilosis, ATCC22019, 48 h, ATCC 22019, 3 replicates, MIC recorded at 48 h, read-out: MIC, C. parapsilosis ATCC 22019. On the procedure:
as §1, §2, §3

Test [4] addresses human (hACC2) (Homo sapiens, UniProt O00763). Description: In vitro ACC inhibition assay (ADP-Glo), hACC2. The format is biochemical. As to conditions: 5 nM ACC2, 20 μM ATP, 20 μM acetyl-CoA. As for the experimental part:
The detailed procedure is as follows. […] 10 μL ADP glo reagent was added. […] 20 μL kinase detection reagent was added.
(In general: ADP-Glo turns the ADP formed in a reaction into a luminescent signal.)

Test [5] has as its target fungal (fACC2) (UniProt Q00955). To be noted: read-out: fACC2 (in vitro ACC2 Inhibition Assay, IC50), ADP-Glo, 5 nM ACC2, 20 μM ATP, 20 μM acetyl-CoA.

Chain of human (hACC2) (O00763 whole entry): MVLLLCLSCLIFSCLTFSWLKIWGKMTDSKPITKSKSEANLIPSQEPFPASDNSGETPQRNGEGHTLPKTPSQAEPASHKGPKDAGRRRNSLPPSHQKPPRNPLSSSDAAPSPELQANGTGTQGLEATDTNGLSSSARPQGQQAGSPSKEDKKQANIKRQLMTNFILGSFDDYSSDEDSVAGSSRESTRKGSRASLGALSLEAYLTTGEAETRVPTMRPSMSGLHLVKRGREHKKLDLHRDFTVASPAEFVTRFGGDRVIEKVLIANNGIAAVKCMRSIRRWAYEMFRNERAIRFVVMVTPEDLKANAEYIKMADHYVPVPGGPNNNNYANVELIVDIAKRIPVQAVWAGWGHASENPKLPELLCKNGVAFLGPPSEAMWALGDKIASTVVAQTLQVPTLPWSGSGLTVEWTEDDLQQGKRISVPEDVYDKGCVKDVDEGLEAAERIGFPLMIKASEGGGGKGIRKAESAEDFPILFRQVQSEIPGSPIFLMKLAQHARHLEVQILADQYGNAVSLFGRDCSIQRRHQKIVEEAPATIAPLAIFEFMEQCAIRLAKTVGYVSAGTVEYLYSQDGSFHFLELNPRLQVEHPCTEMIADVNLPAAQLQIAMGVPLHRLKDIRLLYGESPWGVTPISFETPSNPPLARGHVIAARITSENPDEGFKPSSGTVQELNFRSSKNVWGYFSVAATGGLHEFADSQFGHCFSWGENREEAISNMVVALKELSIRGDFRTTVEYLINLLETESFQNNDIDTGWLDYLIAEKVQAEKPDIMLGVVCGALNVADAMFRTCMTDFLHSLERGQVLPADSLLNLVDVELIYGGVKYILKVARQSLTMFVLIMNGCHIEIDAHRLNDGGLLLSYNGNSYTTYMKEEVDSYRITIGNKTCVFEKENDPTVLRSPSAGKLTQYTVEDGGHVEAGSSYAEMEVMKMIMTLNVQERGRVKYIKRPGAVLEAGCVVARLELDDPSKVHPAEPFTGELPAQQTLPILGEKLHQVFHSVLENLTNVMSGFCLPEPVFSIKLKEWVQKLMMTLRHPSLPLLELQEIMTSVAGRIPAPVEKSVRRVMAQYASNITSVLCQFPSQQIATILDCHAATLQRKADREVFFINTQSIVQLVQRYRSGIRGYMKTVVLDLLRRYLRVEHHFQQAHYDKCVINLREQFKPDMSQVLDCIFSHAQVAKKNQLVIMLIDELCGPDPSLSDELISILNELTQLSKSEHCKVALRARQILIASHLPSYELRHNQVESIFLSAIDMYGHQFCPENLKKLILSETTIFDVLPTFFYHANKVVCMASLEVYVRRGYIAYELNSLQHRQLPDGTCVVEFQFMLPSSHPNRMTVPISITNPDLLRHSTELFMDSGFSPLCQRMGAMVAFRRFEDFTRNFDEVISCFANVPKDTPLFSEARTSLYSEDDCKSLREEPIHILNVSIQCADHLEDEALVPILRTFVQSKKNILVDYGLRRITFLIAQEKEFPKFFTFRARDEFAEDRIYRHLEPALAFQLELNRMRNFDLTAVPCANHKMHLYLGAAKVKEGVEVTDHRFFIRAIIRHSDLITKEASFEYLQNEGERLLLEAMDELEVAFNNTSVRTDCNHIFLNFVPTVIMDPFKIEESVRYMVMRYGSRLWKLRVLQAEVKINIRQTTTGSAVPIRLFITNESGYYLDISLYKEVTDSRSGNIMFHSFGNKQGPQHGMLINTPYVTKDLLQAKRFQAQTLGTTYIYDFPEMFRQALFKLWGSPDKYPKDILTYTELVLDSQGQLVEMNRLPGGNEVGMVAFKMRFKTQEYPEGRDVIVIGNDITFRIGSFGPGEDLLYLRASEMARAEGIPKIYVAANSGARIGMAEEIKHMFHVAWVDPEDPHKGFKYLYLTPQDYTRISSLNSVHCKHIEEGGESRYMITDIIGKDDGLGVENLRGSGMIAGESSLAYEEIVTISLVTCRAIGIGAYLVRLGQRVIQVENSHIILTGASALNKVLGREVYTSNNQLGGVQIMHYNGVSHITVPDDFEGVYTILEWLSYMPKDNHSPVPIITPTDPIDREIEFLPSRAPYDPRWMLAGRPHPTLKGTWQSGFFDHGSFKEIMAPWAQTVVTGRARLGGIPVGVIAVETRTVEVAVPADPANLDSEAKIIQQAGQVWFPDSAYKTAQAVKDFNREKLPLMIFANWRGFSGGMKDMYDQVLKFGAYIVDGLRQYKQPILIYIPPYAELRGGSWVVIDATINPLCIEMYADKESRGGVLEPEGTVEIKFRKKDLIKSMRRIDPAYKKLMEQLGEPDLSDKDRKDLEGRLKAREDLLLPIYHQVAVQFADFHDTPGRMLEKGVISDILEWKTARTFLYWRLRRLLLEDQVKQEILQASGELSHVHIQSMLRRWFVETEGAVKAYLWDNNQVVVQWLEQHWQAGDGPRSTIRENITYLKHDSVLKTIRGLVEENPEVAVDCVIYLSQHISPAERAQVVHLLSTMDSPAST
Chain of fungal (fACC2) (Q00955 whole entry): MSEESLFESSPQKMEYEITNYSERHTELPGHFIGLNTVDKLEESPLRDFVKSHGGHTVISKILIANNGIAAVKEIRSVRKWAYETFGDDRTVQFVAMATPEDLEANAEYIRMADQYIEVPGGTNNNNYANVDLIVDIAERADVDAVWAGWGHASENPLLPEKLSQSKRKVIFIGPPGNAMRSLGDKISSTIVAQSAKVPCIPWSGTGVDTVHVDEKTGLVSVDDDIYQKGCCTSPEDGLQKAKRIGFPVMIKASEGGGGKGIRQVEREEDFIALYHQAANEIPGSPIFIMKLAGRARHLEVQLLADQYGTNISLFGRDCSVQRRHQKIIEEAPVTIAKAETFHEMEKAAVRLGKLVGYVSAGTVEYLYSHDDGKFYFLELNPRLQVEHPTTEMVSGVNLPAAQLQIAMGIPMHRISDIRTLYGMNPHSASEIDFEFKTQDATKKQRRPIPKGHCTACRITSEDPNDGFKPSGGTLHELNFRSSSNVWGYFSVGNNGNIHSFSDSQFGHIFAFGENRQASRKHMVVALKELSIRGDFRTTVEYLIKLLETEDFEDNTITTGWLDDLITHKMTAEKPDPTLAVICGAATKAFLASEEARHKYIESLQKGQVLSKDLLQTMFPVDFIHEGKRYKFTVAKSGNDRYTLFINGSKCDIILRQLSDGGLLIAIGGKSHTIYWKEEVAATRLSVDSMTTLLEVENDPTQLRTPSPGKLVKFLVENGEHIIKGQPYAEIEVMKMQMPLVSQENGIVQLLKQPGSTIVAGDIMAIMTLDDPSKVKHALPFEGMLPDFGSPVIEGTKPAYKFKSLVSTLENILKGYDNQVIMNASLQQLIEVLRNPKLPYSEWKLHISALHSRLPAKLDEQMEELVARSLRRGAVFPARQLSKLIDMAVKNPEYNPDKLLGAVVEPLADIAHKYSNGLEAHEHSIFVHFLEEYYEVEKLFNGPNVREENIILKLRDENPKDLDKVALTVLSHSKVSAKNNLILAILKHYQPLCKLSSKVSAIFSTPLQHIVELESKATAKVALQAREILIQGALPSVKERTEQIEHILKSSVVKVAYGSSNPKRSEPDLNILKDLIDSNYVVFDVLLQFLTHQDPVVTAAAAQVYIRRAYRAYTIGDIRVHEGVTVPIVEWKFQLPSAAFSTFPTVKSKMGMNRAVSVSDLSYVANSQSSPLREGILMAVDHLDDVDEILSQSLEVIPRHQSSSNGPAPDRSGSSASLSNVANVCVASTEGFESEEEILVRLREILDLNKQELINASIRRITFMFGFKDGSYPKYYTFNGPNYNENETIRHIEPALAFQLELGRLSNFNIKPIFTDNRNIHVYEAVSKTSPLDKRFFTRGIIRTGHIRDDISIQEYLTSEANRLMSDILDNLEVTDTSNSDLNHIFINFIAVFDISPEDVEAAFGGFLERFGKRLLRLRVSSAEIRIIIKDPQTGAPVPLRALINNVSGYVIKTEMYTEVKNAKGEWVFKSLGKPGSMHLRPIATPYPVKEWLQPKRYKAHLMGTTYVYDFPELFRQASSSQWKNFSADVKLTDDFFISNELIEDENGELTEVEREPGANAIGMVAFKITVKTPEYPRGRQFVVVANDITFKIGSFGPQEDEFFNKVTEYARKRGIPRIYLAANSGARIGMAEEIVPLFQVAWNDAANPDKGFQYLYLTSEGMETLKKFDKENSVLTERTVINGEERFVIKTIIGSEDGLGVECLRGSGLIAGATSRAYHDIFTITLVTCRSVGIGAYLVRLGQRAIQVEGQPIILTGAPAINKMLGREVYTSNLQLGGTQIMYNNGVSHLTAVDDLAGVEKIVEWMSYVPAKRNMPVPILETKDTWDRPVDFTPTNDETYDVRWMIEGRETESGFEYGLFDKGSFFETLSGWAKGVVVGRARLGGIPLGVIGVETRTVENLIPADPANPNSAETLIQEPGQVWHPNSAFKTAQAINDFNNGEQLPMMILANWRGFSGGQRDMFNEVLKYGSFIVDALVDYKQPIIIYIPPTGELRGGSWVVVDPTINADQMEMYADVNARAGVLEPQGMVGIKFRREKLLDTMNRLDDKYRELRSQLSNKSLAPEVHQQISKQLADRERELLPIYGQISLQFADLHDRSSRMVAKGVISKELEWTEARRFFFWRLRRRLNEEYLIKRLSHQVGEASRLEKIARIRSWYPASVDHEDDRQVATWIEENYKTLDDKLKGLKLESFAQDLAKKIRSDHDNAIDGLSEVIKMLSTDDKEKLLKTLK

Consider `COc1ccc(F)cc1[C@H](Cn1c(=O)n(C(C)(C)C(=O)NC2CCC2)c(=O)c2c(C)c(-n3nccn3)sc21)OCCC(C)=O` [Compound I-105], for which the MIC was 0.25 to 1 µg/mL (≈ 0.399 to 1.6 µM) in test [1] (Table 3a); 1.01 to 2 µg/mL (≈ 1.61 to 3.19 µM) in test [1] (Table 3b (additional results)); 0.06 to 0.24 µg/mL (≈ 0.0957 to 0.383 µM) in test [2] (Table 3a); 0.25 to 1 µg/mL (≈ 0.399 to 1.6 µM) in test [2] (Table 3b (additional results)); 0.25 to 1 µg/mL (≈ 0.399 to 1.6 µM) in test [3] (Table 3a); 0.25 to 1 µg/mL (≈ 0.399 to 1.6 µM) in test [3] (Table 3b (additional results)). The IC50 in test [4] (Table 2a) lay in the range of 1 to 5 nM; in test [4] (Table 2b, additional results), 1 to 5 nM; in test [5] (Table 2a) it was 0.4 to 1 nM; in test [5] (Table 2b, additional results), 0.3 to 1 nM.
`COc1ccc(F)cc1[C@H](Cn1c(=O)n(C(C)(C)C(=O)NC2CCCCC2)c(=O)c2c(C)c(-n3nccn3)sc21)OCCC(C)=O` [Compound I-106]: the minimal inhibitory concentration (MIC) lay in the range of 1.1 to 2 µg/mL (≈ 1.68 to 3.05 µM) in test [1] (Table 3a); 1.01 to 2 µg/mL (≈ 1.54 to 3.05 µM) in test [1] (Table 3b (additional results)); 0.25 to 1 µg/mL (≈ 0.382 to 1.53 µM) in test [2] (Table 3a); 0.25 to 1 µg/mL (≈ 0.382 to 1.53 µM) in test [2] (Table 3b (additional results)); 0.25 to 1 µg/mL (≈ 0.382 to 1.53 µM) in test [3] (Table 3a); 0.25 to 1 µg/mL (≈ 0.382 to 1.53 µM) in test [3] (Table 3b (additional results)). In addition, the IC50 fell in the range of 5 to 10 nM in test [4] (Table 2a); 5 to 10 nM in test [4] (Table 2b, additional results); 1 to 5 nM in test [5] (Table 2a); 1 to 5 nM in test [5] (Table 2b, additional results).
Regarding `Cc1c(-n2nccn2)sc2c1c(=O)n(C(C)(C)C(=O)NC(C)C)c(=O)n2C[C@H](OC1CCOCC1)c1cc(F)ccc1OCc1ccccc1` [Compound I-107], the MIC lay in the range of 0.25 to 1 µg/mL (≈ 0.355 to 1.42 µM) in test [1] (Table 3a); 0.25 to 1 µg/mL (≈ 0.355 to 1.42 µM) in test [1] (Table 3b (additional results)); 0.25 to 1 µg/mL (≈ 0.355 to 1.42 µM) in test [2] (Table 3a); 0.25 to 1 µg/mL (≈ 0.355 to 1.42 µM) in test [2] (Table 3b (additional results)); 1.1 to 2 µg/mL (≈ 1.56 to 2.84 µM) in test [3] (Table 3a); 0.25 to 1 µg/mL (≈ 0.355 to 1.42 µM) in test [3] (Table 3b (additional results)). In addition, the IC50 is 5 to 10 nM in test [4] (Table 2a); 5 to 10 nM in test [4] (Table 2b, additional results); 1 to 5 nM in test [5] (Table 2a); 1 to 5 nM in test [5] (Table 2b, additional results).
For the compound `Cc1c(-n2nccn2)sc2c1c(=O)n(C(C)(C)C(=O)NC(C)C)c(=O)n2C[C@H](OC1CCOCC1)c1cc(F)ccc1OCC1COC1` [Compound I-108], the minimum inhibitory concentration (MIC) in test [1] (Table 3a), in test [1] (Table 3b (additional results)), in test [2] (Table 3a), in test [2] (Table 3b (additional results)), in test [3] (Table 3a) and in test [3] (Table 3b (additional results)) was 0.25 to 1 µg/mL (≈ 0.365 to 1.46 µM) each time. Further, the IC50 in test [4] (Table 2a) is 1 to 5 nM; in test [4] (Table 2b, additional results) it was 1 to 5 nM; in test [5] (Table 2a), 1 to 5 nM; in test [5] (Table 2b, additional results), 1 to 5 nM.
With `COCCOc1ccc(F)cc1[C@H](Cn1c(=O)n(C(C)(C)C(=O)N2CCCC2)c(=O)c2c(C)c(-n3nccn3)sc21)OC1CCOCC1` [Compound I-109], the MIC was 0.25 to 1 µg/mL (≈ 0.365 to 1.46 µM) in test [1] (Table 3a); 0.25 to 1 µg/mL (≈ 0.365 to 1.46 µM) in test [1] (Table 3b (additional results)); 0.25 to 1 µg/mL (≈ 0.365 to 1.46 µM) in test [2] (Table 3a); 1.01 to 2 µg/mL (≈ 1.47 to 2.92 µM) in test [2] (Table 3b (additional results)); 0.25 to 1 µg/mL (≈ 0.365 to 1.46 µM) in test [3] (Table 3a); 1.01 to 2 µg/mL (≈ 1.47 to 2.92 µM) in test [3] (Table 3b (additional results)). Further, the half-inhibitory concentration (IC50) in test [4] (Table 2a) fell in the range of 1 to 5 nM; in test [4] (Table 2b, additional results), 1 to 5 nM; in test [5] (Table 2a) it was 1 to 5 nM; in test [5] (Table 2b, additional results), 1 to 5 nM.
For the compound `Cc1c(-n2nccn2)sc2c1c(=O)n(C(C)(C)C(=O)N1CCCC1)c(=O)n2C[C@H](OC1CCOCC1)c1cc(F)ccc1OCC1COC1` [Compound I-110], the MIC lay within 0.25 to 1 µg/mL (≈ 0.359 to 1.44 µM) in test [1] (Table 3a); 0.25 to 1 µg/mL (≈ 0.359 to 1.44 µM) in test [1] (Table 3b (additional results)); 0.25 to 1 µg/mL (≈ 0.359 to 1.44 µM) in test [2] (Table 3a); 1.01 to 2 µg/mL (≈ 1.45 to 2.87 µM) in test [2] (Table 3b (additional results)); 0.25 to 1 µg/mL (≈ 0.359 to 1.44 µM) in test [3] (Table 3a); 1.01 to 2 µg/mL (≈ 1.45 to 2.87 µM) in test [3] (Table 3b (additional results)). Besides, the concentration for half-maximal inhibition (IC50) in test [4] (Table 2a) is 5 to 10 nM; in test [4] (Table 2b, additional results) it was 5 to 10 nM; in test [5] (Table 2a), 1 to 5 nM; in test [5] (Table 2b, additional results), 1 to 5 nM.
In the case of `Cc1c(-n2nccn2)sc2c1c(=O)n(C(C)(C)C(=O)NC(C)C)c(=O)n2C[C@H](OC1CCOCC1)c1cc(F)ccc1OCCO` [Compound I-111], the MIC in test [1] (Table 3a) is 0.25 to 1 µg/mL (≈ 0.38 to 1.52 µM); in test [1] (Table 3b (additional results)), 0.06 to 0.249 µg/mL (≈ 0.0911 to 0.378 µM); in test [2] (Table 3a) it was 0.25 to 1 µg/mL (≈ 0.38 to 1.52 µM); in test [2] (Table 3b (additional results)) it was 0.06 to 0.249 µg/mL (≈ 0.0911 to 0.378 µM); in test [3] (Table 3a), 0.25 to 1 µg/mL (≈ 0.38 to 1.52 µM); in test [3] (Table 3b (additional results)) it was 0.25 to 1 µg/mL (≈ 0.38 to 1.52 µM). Also, the 50% inhibitory concentration (IC50) in test [4] (Table 2a) lay within 1 to 5 nM; in test [4] (Table 2b, additional results), 1 to 5 nM; in test [5] (Table 2a) it was 0.4 to 1 nM; in test [5] (Table 2b, additional results), 0.3 to 1 nM.

Broadly, the MIC is the smallest concentration in the dilution series that meets the test's criterion for growth inhibition. A word on the IC50: it is the point on the concentration scale where inhibition reaches its midpoint.
